These are literature values, as cited in patent US8617624B2, “Compositions, systems and methods for the diagnosis, prevention and treatment of disorders associated with azetidine-2-carboxylic acid” (priority 2006, dated 2013).

One series relates to pregnant mice. The conditions noted are these: fed to pregnant mice.
For another series, the system named is hamsters. The settings on record: exposure during pregnancy in hamsters.

The structures appear in SMILES notation.

Take `O=C(O)C1CCN1` (stereo not drawn) [Aze, Azetidine-2-carboxylic acid]: the teratogenic effect result in the series with pregnant mice is “predisposes to cleft palate”; with hamsters, “fetal weight abnormalities, tissue hemorrhages, cleft palate, retarded ossifications, and shortened bones”. In addition, in the series on pigs, the “effect on wound healing” value is recorded as “delayed wound healing”.
`O=C(O)[C@@H]1CCCN1` [proline]: the “increase in plasma proline concentration” value (1 mmol proline/kg lean body mass) is given as “approximately 13 fold”. Besides, under “1 mmol proline/kg lean body mass with about 25 g of glucose”, the “plasma proline increase when glucose also ingested” value was “decreased by half”. Also, under “ingestion”, the absorption of proline result was “readily absorbed”.
